Structures are written as SMILES.

This is an account of results in patent US20250230154A1, “COMPOUND HAVING SHP2 PROTEIN DEGRADING ACTIVITY, AND MEDICAL USES THEREOF” (UBIX THERAPEUTICS, INC., priority 2021, published 2025).

In this test the target is T1, SHP2 protein (Homo sapiens, UniProt Q06124).
T1 sequence (Q06124 1-593): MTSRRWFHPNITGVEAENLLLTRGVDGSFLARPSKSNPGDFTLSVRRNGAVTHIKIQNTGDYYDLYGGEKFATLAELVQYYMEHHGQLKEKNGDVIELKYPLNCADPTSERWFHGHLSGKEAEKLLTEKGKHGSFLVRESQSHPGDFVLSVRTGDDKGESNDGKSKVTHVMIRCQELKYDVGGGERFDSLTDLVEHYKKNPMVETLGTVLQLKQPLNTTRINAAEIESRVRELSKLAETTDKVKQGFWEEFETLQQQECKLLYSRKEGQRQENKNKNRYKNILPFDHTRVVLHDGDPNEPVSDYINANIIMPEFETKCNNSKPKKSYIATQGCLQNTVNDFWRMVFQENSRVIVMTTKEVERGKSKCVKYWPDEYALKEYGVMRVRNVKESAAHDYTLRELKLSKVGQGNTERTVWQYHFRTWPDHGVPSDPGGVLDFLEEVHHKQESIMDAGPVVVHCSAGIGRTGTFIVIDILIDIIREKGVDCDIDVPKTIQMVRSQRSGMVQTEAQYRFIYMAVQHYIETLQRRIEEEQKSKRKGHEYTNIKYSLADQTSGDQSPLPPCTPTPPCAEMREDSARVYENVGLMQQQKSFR
Nature of the test: Measurement of SHP2 protein degradation in MV-4-11 cells (western blotting). Type of test: cell-based. Also noted: endogenous in cells; host or cells: MV-4-11. Conditions: MV-4-11 cells, 24 hours. As for the experimental part:
Experimental Example 2: Measurement of SHP2 Protein Degradation in MV-4-11 Cells
MV-4-11 cells were treated with the synthesized Example compound, and the amount of SHP2 protein present in the cells was measured using western blotting detection. The protocol of the experiment conducted using MV-4-11 cells was as follows:
[Culture] MV-4-11 cells resuspended in IMDM MEDIUM (Hyclone, SH30228.01) containing 5% FBS (Hyclone, SV30207.02) and 1% Penicillin-streptomycin (Welgene, LS 202-02) were seeded at a density of 1×10^6/mL/well in a 12-well plate in an amount of 1 ml each.
[Compound treatment] The 12-well plate was treated as follows: Cells were treated with compounds at a final concentration of […] made by serial dilution of 10 mM stock with DMSO in 1/100 increments […]. After 24 hours, cells were harvested. For the negative control group, DMSO diluted 1/100 to the media (3 mL DMSO+297 mL media) was added.
[Harvest] Each well was collected in a 1.5 mL microtube by pipetting with a 1 mL pipette and centrifuged (500 g, 5 min, 4° C.). The supernatant was removed. It was washed with PBS, and then centrifuged again (500 g, 5 min, 4° C.). Thereafter, the supernatant was removed to prepare a pellet.
[Cell Lysis and Sample preparation] Lysis buffer was prepared as follows: […] of RIPA buffer (Biosesang, RC2038-050-00)+0.5 mM PMSF (SIGMA, P7626)+1× Protease/Phosphatase Inhibitor (Cell signaling, 5872S) per well was added and placed on ice for 30 minutes (vortexing at 0 and 30 minutes, respectively). After sonication process (10 seconds pulse, 30 seconds rest, 5 cycles, 70% amplification), centrifugation (15000 g, 15 min, 4° C.) was performed, and then only the supernatant was taken and transferred to a microtube. The sample was diluted ¼ with RIPA buffer in a 96-well plate, and mixed with A:B=50:1 of the BCA Protein Assay Kit (iNtRON, 21071). […] each of the mixture was left at 37° C. for 30 minutes, and cooled for 10 minutes. Then, absorbance was measured at 562 nm with the SYNERGY H1 microplate reader from BioTek. After making a sample by quantifying the protein with the measured value, boiling was performed at 70° C. for 10 minutes. At this time, the sample buffer used was a mixture of NuPAGE or Bolt 4× sample buffer (Invitrogen) and each 10× sample reducing agent according to the gel to be used, and RIPA buffer was used for protein dilution.
[Western blotting detection method] The same amount of sample was loaded on NuPAGE or Bolt Bis-tris 4-12% gradient gel and run (200 V, 35 minutes). It was transferred to 0.2 mm NC membrane with Trans-blot Turbo (BIO-RAD) (1.3 A constant, 25 V limit, 15 minutes). Blocking was performed at room temperature for 1 hour with Skim milk or Intercept Blocking Buffer (LI-COR, 927-60001):0.1% TBST=1:1. Anti-SHPTP2 Mouse (1:500 in 2% BSA/0.2% TBST, size: 70 kDa, Santacruz sc-7384) was incubated overnight at 4° C., and Anti-GAPDH Rabbit (1:2,000 in 2% BSA/0.2% TBST, size: 37 kDa, CST #2118) was incubated at room temperature for 1 hour 30 minutes or 3 hours. It was washed 3 times for 5 minutes each with 0.2% TBST washing buffer. Secondary antibody Anti-Rabbit IgG (1:5,000 in 2% BSA/0.2% TBST, CST), IRDye® 680RD Goat anti-Rabbit IgG Secondary Antibody (1:10,000 in 2% BSA/0.2% TBST, LI-COR 926-68071) were added and incubated for 45 minutes on a rocker at room temperature. It was washed 5 times for 5 minutes each with 0.2% TBST washing buffer and detected with LI-COR's Odyssey. At this time, SHPTP2 was detected using SuperSignal West Pico PLUS Chemiluminescent Substrate, and house-keeping genes were also detected.
In the results of Table 4 below, Compounds 1-7, 13-19, and 21-26 are results in KYSE-520 cells, and the others are results in MV-4-11 cells.

In the case of `CC(=O)N[C@H](C(=O)N1C[C@H](O)C[C@H]1C(=O)NCc1ccc(-c2scnc2C)cc1OCCN1CCN(C(=O)CC(=O)Nc2cccc(Sc3cnc(N4CCC(C)(CN)CC4)cn3)c2Cl)CC1)C(C)(C)C` [Example 57, (2S,4R)-1-((S)-2-acetamido-3,3-dimethylbutanoyl)-N-(2-(2-(4-(3-((3-((5-(4-(aminomethyl)-4-methylpiperidin-1-yl)pyrazin-2-yl)thio)-2-chlorophenyl)amino)-3-oxopropanoyl)piperazin-1-yl)ethoxy)-4-(4-methylthiazol-5-yl)benzyl)-4-hydroxypyrrolidine-2-carboxamide], the “SHP2 degradation (%) 10 nM” value is 95.7%, the “SHP2 degradation (%) 100 nM” value was 99.8% and the “SHP2 degradation (%) 1000 nM” value is on record as 99.7%.

As to `Cc1ncsc1-c1ccc(CNC(=O)[C@@H]2C[C@@H](O)CN2C(=O)[C@@H](NC(=O)C2(F)CC2)C(C)(C)C)c(OCC2CCN(C(=O)CC(=O)Nc3cccc(Sc4ncc(N5CCC(C)(N)CC5)nc4N)c3Cl)CC2)c1` [Example 30, (2S,4R)—N-(2-((1-(3-((3-((3-amino-5-(4-amino-4-methylpiperidin-1-yl)pyrazin-2-yl)thio)-2-chlorophenyl)amino)-3-oxopropanoyl)piperidin-4-yl)methoxy)-4-(4-methylthiazol-5-yl)benzyl)-1-((S)-2-(1-fluorocyclopropane-1-carboxamido)-3,3-dimethylbutanoyl)-4-hydroxypyrrolidine-2-carboxamide], the “SHP2 degradation (%) 10 nM” value stood at 71.5% and the “SHP2 degradation (%) 100 nM” value came to 95.5%.

Regarding `Cc1ncsc1-c1ccc(CNC(=O)[C@@H]2C[C@@H](O)CN2C(=O)[C@@H](NC(=O)C2(F)CC2)C(C)(C)C)c(OCCC2CCN(C(=O)C(=O)Nc3cccc(Sc4cnc(N5CCC(C)(CN)CC5)cn4)c3Cl)CC2)c1` [Example 27, (2S,4R)—N-(2-(2-(1-(2-((3-((5-(4-(aminomethyl)-4-methylpiperidin-1-yl)pyrazin-2-yl)thio)-2-chlorophenyl)amino)-2-oxoacetyl)piperidin-4-yl)ethoxy)-4-(4-methylthiazol-5-yl)benzyl)-1-((S)-2-(1-fluorocyclopropane-1-carboxamido)-3,3-dimethylbutanoyl)-4-hydroxypyrrolidine-2-carboxamide], the “SHP2 degradation (%) 10 nM” value is 23.5%, the “SHP2 degradation (%) 100 nM” value was 72% and the “SHP2 degradation (%) 1000 nM” value came to 91.5%.

`Cc1ncsc1-c1ccc(CNC(=O)[C@@H]2C[C@@H](O)CN2C(=O)[C@@H](NC(=O)C2(F)CC2)C(C)(C)C)c(OCCN2CCN(c3nccc(C(=O)Nc4cccc(Sc5cnc(N6CCC(C)(CN)CC6)cn5)c4Cl)n3)CC2)c1` [Example 86, N-(3-((5-(4-(aminomethyl)-4-methylpiperidin-1-yl)pyrazin-2-yl)thio)-2-chlorophenyl)-2-(4-(2-(2-(((2S,4R)-1-((S)-2-(1-fluorocyclopropane-1-carboxamido)-3,3-dimethylbutanoyl)-4-hydroxypyrrolidine-2-carboxamido)methyl)-5-(4-methylthiazol-5-yl)phenoxy)ethyl)piperazin-1-yl)pyrimidine-4-carboxamide]: the “SHP2 degradation (%) 10 nM” value is reported as −29.2% and the “SHP2 degradation (%) 100 nM” value is 23.8%.

Consider `Cc1ncsc1-c1ccc(CNC(=O)[C@@H]2C[C@@H](O)CN2C(=O)[C@@H](NC(=O)C2(F)CC2)C(C)(C)C)c(OCCN2CCN(CC(=O)Nc3cccc(Sc4cnc(N5CCC(C)(CN)CC5)cn4)c3Cl)CC2)c1` [Example 72, (2S,4R)—N-(2-(2-(4-(2-((3-((5-(4-(aminomethyl)-4-methylpiperidin-1-yl)pyrazin-2-yl)thio)-2-chlorophenyl)amino)-2-oxoethyl)piperazin-1-yl)ethoxy)-4-(4-methylthiazol-5-yl)benzyl)-1-((S)-2-(1-fluorocyclopropane-1-carboxamido)-3,3-dimethylbutanoyl)-4-hydroxypyrrolidine-2-carboxamide], for which the “SHP2 degradation (%) 10 nM” value was 5.1% and the “SHP2 degradation (%) 100 nM” value is on record as 85.6%.

With `Cc1ncsc1-c1ccc(CNC(=O)[C@@H]2C[C@@H](O)CN2C(=O)[C@@H](NC(=O)C2(F)CC2)C(C)(C)C)c(OCCCC2CCN(CC(=O)Nc3cccc(Sc4cnc(N5CCC(C)(CN)CC5)cn4)c3Cl)CC2)c1` [Example 71, (2S,4R)—N-(2-(3-(1-(2-((3-((5-(4-(aminomethyl)-4-methylpiperidin-1-yl)pyrazin-2-yl)thio)-2-chlorophenyl)amino)-2-oxoethyl)piperidin-4-yl)propoxy)-4-(4-methylthiazol-5-yl)benzyl)-1-((S)-2-(1-fluorocyclopropane-1-carboxamido)-3,3-dimethylbutanoyl)-4-hydroxypyrrolidine-2-carboxamide], the “SHP2 degradation (%) 10 nM” value is −1.0%, the “SHP2 degradation (%) 100 nM” value amounted to 29.0% and the “SHP2 degradation (%) 1000 nM” value was determined as 87.5%.

For `Cc1ncsc1-c1ccc(CNC(=O)[C@@H]2C[C@@H](O)CN2C(=O)[C@@H](NC(=O)C2(F)CC2)C(C)(C)C)c(OCCC2CCN(C(=O)CC(=O)Nc3cccc(Sc4ncc(N5CCC(C)(CN)CC5)nc4N)c3Cl)CC2)c1` [Example 37, (2S,4R)—N-(2-(2-(1-(3-((3-((3-amino-5-(4-(aminomethyl)-4-methylpiperidin-1-yl)pyrazin-2-yl)thio)-2-chlorophenyl)amino)-3-oxopropanoyl)piperidin-4-yl)ethoxy)-4-(4-methylthiazol-5-yl)benzyl)-1-((S)-2-(1-fluorocyclopropane-1-carboxamido)-3,3-dimethylbutanoyl)-4-hydroxypyrrolidine-2-carboxamide], the “SHP2 degradation (%) 10 nM” value is listed as 80.5%, the “SHP2 degradation (%) 100 nM” value is 89.5% and the “SHP2 degradation (%) 1000 nM” value turned out to be 90.5%.

On to `CC(=O)N[C@H](C(=O)N1C[C@H](O)C[C@H]1C(=O)NCc1ccc(-c2scnc2C)cc1OCCCN1CCC(CC(=O)Nc2cccc(Sc3cnc(N4CCC(C)(CN)CC4)cn3)c2Cl)CC1)C(C)(C)C` [Example 12, (2S,4R)-1-((S)-2-acetamido-3,3-dimethylbutanoyl)-N-(2-(3-(4-(2-((3-((5-(4-(aminomethyl)-4-methylpiperidin-1-yl)pyrazin-2-yl)thio)-2-chlorophenyl)amino)-2-oxoethyl)piperidin-1-yl)propoxy)-4-(4-methylthiazol-5-yl)benzyl)-4-hydroxypyrrolidine-2-carboxamide], for which the “SHP2 degradation (%) 10 nM” value was found to be 23.9%, the “SHP2 degradation (%) 100 nM” value amounted to 88.4% and the “SHP2 degradation (%) 1000 nM” value was found to be 93.3%.
